Literature values as cited in patent publication US10561697B2, “Compositions based on saffron for the prevention and/or treatment of degenerative eye disorders” (Hortus Novus SRL, priority 2014, dated 2020).

Assays:
rats exposed to light = details: diet added with 0.2% of curcumin
[1] = test system: rats affected by the P23H mutation in the rhodopsin gene; details: 100 mg/kg

COc1cc(/C=C/C(=O)CC(=O)/C=C/c2ccc(O)c(OC)c2)ccc1O [curcumin]
onset of retinal oxidative and inflammatory stress (rats exposed to light): reduction in the onset of retinal oxidative and inflammatory stress
formation of rhodopsin aggregates [1]: active in inhibiting the formation of rhodopsin aggregates
morphology of the retina, photoreceptors preservation ([1]; transgenic rats): improvement in the morphology of the retina
